Experimental data published in PubChem BioAssay (NCI).
Values joined by “and” are separate entries in the source; they are usually repeats but may differ in a detail not shown here. Equal entries are not always repeated.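 Values below derive from 48-hour exposures of cells grown in 96-well plates, with endpoints linearly interpolated between the two concentrations bracketing the appropriate inhibition level. The concentration for 50% growth inhibition is given as GI50. TGI: total growth inhibition.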

Key:
Assay in all cases: DTP human tumour cell line panel, 48 h
[1] = test system: UO-31 renal
[2] = test system: SK-OV-3 ovarian
[3] = test system: SNB-19 CNS
[4] = test system: MDA-MB-231 breast
[5] = test system: SR leukemia
[6] = test system: EKVX NSCLC
[7] = test system: HT29 colon
[8] = test system: SK-MEL-28 melanoma
[9] = test system: MOLT-4 leukemia
[10] = test system: SF-539 CNS

Compound	TGI [1] [µM]	TGI [2] [µM]	TGI [3] [µM]	TGI [4] [µM]	TGI [5] [µM]	TGI [6]	TGI [7]	TGI [8]	GI50 [9] [µM]	TGI [9] [µM]	GI50 [1] [µM]	GI50 [2]	GI50 [3] [µM]	GI50 [4] [µM]	GI50 [5] [µM]	GI50 [6]	GI50 [7] [µM]	GI50 [8]	GI50 [10] [µM]	TGI [10] [µM]
c1ccc2sc(SCCSc3nc4ccccc4s3)nc2c1	> 100	> 100	> 100	> 100	> 100	> 100 µM	> 100 µM	> 100 µM	–	–	–	–	–	–	–	–	–	–	–	–
Cc1cc(S(=O)(=O)Nc2nc3ccccc3o2)c(SCc2ccccc2)cc1Cl	> 100	> 100	67.8	90.5	> 100	55.8 µM	> 100 µM	62.9 µM	24.4	> 100	32.9	34.3 µM	21.6	35.9	11.5	21.9 µM	33.8	25.6 µM	19.1	40.8
COc1ccc(C(c2cc(OC)c(OC)c(OC)c2)n2ccnc2)cc1O (centres undefined)	> 100	> 100	> 100	> 100	> 100	> 100 µM	1.02 µM	–	0.565	> 100	0.883	0.465 µM	0.532	0.664	0.182	0.72 µM	0.312	–	0.217	0.552
NNC(=S)N/N=C(\C(=O)Nc1cccc(O)c1)C1C(=O)NC(=S)NC1=O	> 100	> 100	> 100	> 100	> 100	> 100 µM	> 100 µM	> 100 µM	–	> 100	–	–	–	–	–	–	–	–	–	> 100
COC(=O)c1n[nH]c(C)c1N=NN(C)CCC#N	13.3	61.5	87	62.8	44.6	29.2 µM	87.8 µM	> 100 µM	–	15.1	–	–	–	–	–	–	–	–	–	30.3
CC1=CC(=O)C2=C(C)CCC3C(C)C(=O)OC3C12 (centres undefined)	> 100	> 100	> 100	> 100	> 100	> 100 µM	> 100 µM	> 100 µM	–	> 100	–	–	–	–	–	–	–	–	–	> 100
CCCCCCCCCCCCOC1C(CNC(=O)C2OC3OC(C)(C)OC3C2NC(=O)Nc2ccc(CC(=O)OC)cc2)OC2OC(C)(C)OC21 (centres undefined)	> 100	> 100	> 100	> 82	> 100	> 100 µM	> 100 µM	> 100 µM	–	> 100	> 100	> 100 µM	> 100	8.43	> 100	> 100 µM	> 100	> 100 µM	> 100	> 100
Fc1cccc(COc2ccc(Nc3ncnc4sc(-c5cccs5)cc34)cc2Cl)c1	> 24.1	9.69	12	16.4	> 25	> 20.4 µM	17.9 µM	> 22.8 µM	> 25	> 25	5.78	3.47 µM	5.33	5.73	> 16.4	4.74 µM	6.93	6.58 µM	5.55	15.3
COc1ccc(C2CC(c3cccc(Nc4ccnc5cc(Cl)ccc45)c3)=NN2C=O)cc1 (centres undefined)	> 100	> 35.6	> 100	> 66.4	2.04	> 100 µM	1.54 µM	25.6 µM	0.487	> 100	0.989	0.795 µM	0.902	1.7	0.271	1.19 µM	0.349	1.13 µM	0.785	8.42
Cc1cc(O)c(=O)cc2c1C[C@H]1CC(C)(C)/C=C/C[C@]3(C)Oc4cc(=O)c(O)cc(C)c4C[C@H]3C[C@H](O)[C@@]1(C)O2	0.198	0.412	> 67.3	50.3	0.591	> 46.2 µM	> 100 µM	19.9 µM	–	–	0.0213	0.0181 µM	< 0.01	0.0322	< 0.0115	0.0172 µM	< 0.01	0.0423 µM	0.0332	58.6
O=c1c2c(=NCCN3CCCC3)cc3c(=O)n(CCCN4CCOCC4)c(=O)c4c(-c5ccc(CN6CCCC6)cc5)cc(c(O)n1CCCN1CCOCC1)c2c4-3	0.231	1.43	1.2	0.384	11.1	0.484 µM	0.413 µM	0.557 µM	< 0.0206	5.37	0.038	0.086 µM	0.054	0.0397	< 0.0108	0.0828 µM	< 0.0115	0.156 µM	0.0617	0.274
Cc1nc([P+](c2ccccc2)(c2ccccc2)c2ccccc2)c(Sc2sc(-c3ccccc3)nc2[P+](c2ccccc2)(c2ccccc2)c2ccccc2)o1	5.99	–	12.2	6.27	17.2	5.64 µM	10.6 µM	10.5 µM	1.8	6.15	1.81	–	1.6	1.86	0.372	1.1 µM	0.861	1.99 µM	2.3	7.34
CCOC(=O)c1cc(C(=O)c2cc(OC)c(OC)c(OC)c2)n2ncccc12	> 100	> 95.1	> 100	> 100	> 100	> 100 µM	> 100 µM	> 100 µM	0.575	> 100	0.782	0.472 µM	0.705	1.82	0.126	0.65 µM	0.245	4.68 µM	0.292	2.28
COc1cc(C2Cc3ncccc3-c3[nH]c(=O)c4cccnc4c32)cc(OC)c1OC (centres undefined)	> 100	> 100	> 100	> 100	> 100	> 100 µM	> 100 µM	> 100 µM	0.535	> 100	0.819	0.376 µM	0.823	3.88	0.281	3.21 µM	0.347	36 µM	0.269	1.55
O=C(Cc1ccc(/C=C/C(=O)c2ncc[nH]2)cc1)Nc1ccc(F)cc1	7.06	> 33.3	14.9	10.3	6.41	32.9 µM	4.45 µM	16.6 µM	5.74	> 33.3	2.64	9.38 µM	1.58	1.83	1.11	7.46 µM	1.15	6.26 µM	0.845	2.66
COc1ccc2c(c1)/C(=C\c1c(-c3cc(OC)ccc3OC)nc3sc(C)cn13)C(=O)N2C	> 100	> 100	> 100	96.7	53	> 100 µM	–	32.3 µM	14.1	51.8	16.8	28 µM	58.9	16.7	20.8	61.1 µM	–	16 µM	32.9	> 100
Fc1cc2[nH]ncc2c2c3c(c(-c4cn[nH]c4C(F)(F)F)nc12)CCCC3	6.02	–	9.37	7.23	5.87	5.3 µM	> 100 µM	5.35 µM	0.802	3.75	1.56	–	2.29	1.83	0.716	1.84 µM	2.95	1.41 µM	1.29	3.06
COc1cc2c(cc1OC)[C@@H](Nc1ccc(C#N)cc1)C1COC(=O)[C@@H]1C2c1cc(OC)c(O)c(OC)c1 (some centres undefined)	11.9	–	95	6.67	0.0742	95 µM and 62.5 µM	23.2 µM and > 100 µM	95 µM and > 100 µM	–	–	–	0.195 µM and 0.548 µM	–	–	–	16.4 µM and 6.9 µM	–	3.4 µM and 6.94 µM	–	0.856
CCOC(=O)c1ccc(NC(=O)Nc2nncs2)cc1	28.7	3.11	> 61.1	6.35	24.3	–	10.9 µM	56 µM	0.384	> 48.7	1.48	0.178 µM	0.456	0.532	0.0527	–	0.189	0.25 µM	0.162	2.36
CCOC(=O)/C(=C/N1CCN(C(=O)c2ccco2)C1=S)C(=O)c1ccccc1	19.3	> 50	> 50	33.2	16.4	23.7 µM	> 50 µM	> 50 µM	19.6	> 50	9.99	20 µM	35.6	10.8	2.35	9.53 µM	19.2	22.2 µM	–	–
